Measurements: ChEMBL document CHEMBL4024706 (Eur J Med Chem, 2017)

Experiments:
SKM-1 = assay: Growth inhibition of human SKM1 cells; type: functional; settings: Homo sapiens, SKM-1
[1] = molecular target: Mitogen-activated protein kinase kinase kinase 5 (Homo sapiens) (UniProt Q99683); assay: Inhibition of wild-type human partial length ASK1 (E648 to S964 residues) expressed in bacterial expression system assessed as residual activity at 1 uM by Kinomescan method relative to control
[2] = molecular target: Serine/threonine-protein kinase BRSK1 (Homo sapiens) (UniProt Q8TDC3); assay: Inhibition of wild-type human partial length BRSK1 (M1 to E754 residues) expressed in bacterial expression system assessed as residual activity at 1 uM by Kinomescan method relative to control
[3] = molecular target: Calcium/calmodulin-dependent protein kinase type 1G (Homo sapiens) (UniProt Q96NX5); assay: Inhibition of wild-type human partial length CAMK1G (M1 to A342 residues) expressed in bacterial expression system assessed as residual activity at 1 uM by Kinomescan method relative to control
[4] = molecular target: Tyrosine-protein kinase CSK (Homo sapiens) (UniProt P41240); assay: Inhibition of wild-type human full length CSK (M1 to L450 residues) expressed in bacterial expression system assessed as residual activity at 1 uM by Kinomescan method relative to control
[5] = test system: Epidermal growth factor receptor (Homo sapiens), P00533 [G719S]; assay: Inhibition of human partial length EGFR G719S mutant (R669 to V1011 residues) expressed in bacterial expression system assessed as residual activity at 1 uM by Kinomescan method relative to control
[6] = molecular target: Ephrin type-A receptor 8 (Homo sapiens) (UniProt P29322); assay: Inhibition of wild-type human partial length EPHA8 (Q608 to C920 residues) expressed in bacterial expression system assessed as residual activity at 1 uM by Kinomescan method relative to control
[7] = molecular target: Cyclin-G-associated kinase (Homo sapiens) (UniProt O14976); assay: Inhibition of wild-type human partial length GAK (G13 to Y338 residues) expressed in bacterial expression system assessed as residual activity at 1 uM by Kinomescan method relative to control
[8] = molecular target: G protein-coupled receptor kinase 4 (Homo sapiens) (UniProt P32298); assay: Inhibition of wild-type human full length GRK4 (M1 to C578 residues) expressed in bacterial expression system assessed as residual activity at 1 uM by Kinomescan method relative to control
[9] = molecular target: Glycogen synthase kinase-3 alpha (Homo sapiens) (UniProt P49840); assay: Inhibition of wild-type human full length GSK3A (M1 to S483 residues) expressed in bacterial expression system assessed as residual activity at 1 uM by Kinomescan method relative to control
[10] = molecular target: MAP kinase-activated protein kinase 2 (Homo sapiens) (UniProt P49137); assay: Inhibition of wild-type human partial length MAPKAPK2 (V48 to D345 residues) expressed in bacterial expression system assessed as residual activity at 1 uM by Kinomescan method relative to control
[11] = molecular target: Dual specificity mitogen-activated protein kinase kinase 4 (Homo sapiens) (UniProt P45985); assay: Inhibition of wild-type human partial length MEK4 (S84 to D399 residues) expressed in mammalian expression system assessed as residual activity at 1 uM by Kinomescan method relative to control
[12] = test system: Hepatocyte growth factor receptor (Homo sapiens), P08581 [M1250T]; assay: Inhibition of human partial length MET M1250T mutant (D1010 to S1367 residues) expressed in bacterial expression system assessed as residual activity at 1 uM by Kinomescan method relative to control
[13] = molecular target: Misshapen-like kinase 1 (Homo sapiens) (UniProt Q8N4C8); assay: Inhibition of wild-type human partial length MINK (M1 to K312 residues) expressed in mammalian expression system assessed as residual activity at 1 uM by Kinomescan method relative to control
[14] = molecular target: Myosin light chain kinase (Homo sapiens) (UniProt Q32MK0); assay: Inhibition of wild-type human partial length MLCK (D488 to K800 residues) expressed in bacterial expression system assessed as residual activity at 1 uM by Kinomescan method relative to control
[15] = molecular target: Mitogen-activated protein kinase kinase kinase 11 (Homo sapiens) (UniProt Q16584); assay: Inhibition of wild-type human partial length MLK3 (I77 to W399 residues) expressed in bacterial expression system assessed as residual activity at 1 uM by Kinomescan method relative to control
[16] = molecular target: Cyclin-dependent kinase 16 (Homo sapiens) (UniProt Q00536); assay: Inhibition of wild-type human partial length PCTK1 (G160 to A474 residues) expressed in mammalian expression system assessed as residual activity at 1 uM by Kinomescan method relative to control
[17] = molecular target: Membrane-associated tyrosine- and threonine-specific cdc2-inhibitory kinase (Homo sapiens) (UniProt Q99640); assay: Inhibition of wild-type human partial length PKMYT1 (A88 to G366 residues) expressed in bacterial expression system assessed as residual activity at 1 uM by Kinomescan method relative to control
[18] = molecular target: Serine/threonine-protein kinase SIK3 (Homo sapiens) (UniProt Q9Y2K2); assay: Inhibition of wild-type human partial length QSK (A90 to L395 residues) expressed in mammalian expression system assessed as residual activity at 1 uM by Kinomescan method relative to control
[19] = molecular target: Ribosomal protein S6 kinase alpha-6 (Homo sapiens) (UniProt Q9UK32); assay: Inhibition of wild-type human partial length N-terminal RSK4 kinase domain 1 (M1 to E397 residues) expressed in mammalian expression system assessed as residual activity at 1 uM by Kinomescan method relative to control
[20] = molecular target: Tyrosine-protein kinase SYK (Homo sapiens) (UniProt P43405); assay: Inhibition of wild-type human partial length SYK (D354 to N635 residues) expressed in bacterial expression system assessed as residual activity at 1 uM by Kinomescan method relative to control
[21] = molecular target: TGF-beta receptor type-2 (Homo sapiens) (UniProt P37173); assay: Inhibition of wild-type human partial length TGFBR2 (I218 to K567 residues) expressed in bacterial expression system assessed as residual activity at 1 uM by Kinomescan method relative to control
[22] = molecular target: Tyrosine-protein kinase receptor Tie-1 (Homo sapiens) (UniProt P35590); assay: Inhibition of wild-type human partial length TIE1 (T819 to A1138 residues) expressed in bacterial expression system assessed as residual activity at 1 uM by Kinomescan method relative to control
[23] = molecular target: Activated CDC42 kinase 1 (Homo sapiens) (UniProt Q07912); assay: Inhibition of wild-type human partial length TNK2 (S159 to D474 residues) expressed in bacterial expression system assessed as residual activity at 1 uM by Kinomescan method relative to control
[24] = molecular target: NT-3 growth factor receptor (Homo sapiens) (UniProt Q16288); assay: Inhibition of wild-type human partial length TRKC (Q531 to G825 residues) expressed in mammalian expression system assessed as residual activity at 1 uM by Kinomescan method relative to control
[25] = molecular target: Testis-specific serine/threonine-protein kinase 3 (Homo sapiens) (UniProt Q96PN8); assay: Inhibition of wild-type human full length TSSK3 (M1 to T268 residues) expressed in mammalian expression system assessed as residual activity at 1 uM by Kinomescan method relative to control

NT-3 growth factor receptor (Homo sapiens), sequence (Q16288 32-839 limits assumed): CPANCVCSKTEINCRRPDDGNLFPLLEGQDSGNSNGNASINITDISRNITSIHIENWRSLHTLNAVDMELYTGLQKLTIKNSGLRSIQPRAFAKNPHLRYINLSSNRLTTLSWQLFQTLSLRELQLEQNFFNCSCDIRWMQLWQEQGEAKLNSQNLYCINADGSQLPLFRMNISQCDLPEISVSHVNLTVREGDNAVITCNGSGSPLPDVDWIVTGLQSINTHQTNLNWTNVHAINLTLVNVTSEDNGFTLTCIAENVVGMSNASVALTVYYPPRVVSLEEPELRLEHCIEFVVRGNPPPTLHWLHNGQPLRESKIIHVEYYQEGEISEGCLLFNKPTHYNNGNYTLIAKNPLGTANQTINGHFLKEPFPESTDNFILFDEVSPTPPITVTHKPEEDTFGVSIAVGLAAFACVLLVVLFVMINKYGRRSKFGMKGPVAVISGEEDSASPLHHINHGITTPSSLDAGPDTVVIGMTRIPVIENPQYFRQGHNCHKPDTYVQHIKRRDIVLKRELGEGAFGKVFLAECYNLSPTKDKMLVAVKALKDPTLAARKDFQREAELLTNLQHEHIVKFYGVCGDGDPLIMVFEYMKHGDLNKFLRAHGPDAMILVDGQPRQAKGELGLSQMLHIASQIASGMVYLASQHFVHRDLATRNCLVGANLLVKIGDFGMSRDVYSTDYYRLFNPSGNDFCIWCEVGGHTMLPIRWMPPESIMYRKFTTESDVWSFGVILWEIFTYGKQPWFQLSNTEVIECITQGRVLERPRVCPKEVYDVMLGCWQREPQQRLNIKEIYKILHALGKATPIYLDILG
Cyclin-G-associated kinase (Homo sapiens), sequence (O14976 whole entry, the tested form may be a part): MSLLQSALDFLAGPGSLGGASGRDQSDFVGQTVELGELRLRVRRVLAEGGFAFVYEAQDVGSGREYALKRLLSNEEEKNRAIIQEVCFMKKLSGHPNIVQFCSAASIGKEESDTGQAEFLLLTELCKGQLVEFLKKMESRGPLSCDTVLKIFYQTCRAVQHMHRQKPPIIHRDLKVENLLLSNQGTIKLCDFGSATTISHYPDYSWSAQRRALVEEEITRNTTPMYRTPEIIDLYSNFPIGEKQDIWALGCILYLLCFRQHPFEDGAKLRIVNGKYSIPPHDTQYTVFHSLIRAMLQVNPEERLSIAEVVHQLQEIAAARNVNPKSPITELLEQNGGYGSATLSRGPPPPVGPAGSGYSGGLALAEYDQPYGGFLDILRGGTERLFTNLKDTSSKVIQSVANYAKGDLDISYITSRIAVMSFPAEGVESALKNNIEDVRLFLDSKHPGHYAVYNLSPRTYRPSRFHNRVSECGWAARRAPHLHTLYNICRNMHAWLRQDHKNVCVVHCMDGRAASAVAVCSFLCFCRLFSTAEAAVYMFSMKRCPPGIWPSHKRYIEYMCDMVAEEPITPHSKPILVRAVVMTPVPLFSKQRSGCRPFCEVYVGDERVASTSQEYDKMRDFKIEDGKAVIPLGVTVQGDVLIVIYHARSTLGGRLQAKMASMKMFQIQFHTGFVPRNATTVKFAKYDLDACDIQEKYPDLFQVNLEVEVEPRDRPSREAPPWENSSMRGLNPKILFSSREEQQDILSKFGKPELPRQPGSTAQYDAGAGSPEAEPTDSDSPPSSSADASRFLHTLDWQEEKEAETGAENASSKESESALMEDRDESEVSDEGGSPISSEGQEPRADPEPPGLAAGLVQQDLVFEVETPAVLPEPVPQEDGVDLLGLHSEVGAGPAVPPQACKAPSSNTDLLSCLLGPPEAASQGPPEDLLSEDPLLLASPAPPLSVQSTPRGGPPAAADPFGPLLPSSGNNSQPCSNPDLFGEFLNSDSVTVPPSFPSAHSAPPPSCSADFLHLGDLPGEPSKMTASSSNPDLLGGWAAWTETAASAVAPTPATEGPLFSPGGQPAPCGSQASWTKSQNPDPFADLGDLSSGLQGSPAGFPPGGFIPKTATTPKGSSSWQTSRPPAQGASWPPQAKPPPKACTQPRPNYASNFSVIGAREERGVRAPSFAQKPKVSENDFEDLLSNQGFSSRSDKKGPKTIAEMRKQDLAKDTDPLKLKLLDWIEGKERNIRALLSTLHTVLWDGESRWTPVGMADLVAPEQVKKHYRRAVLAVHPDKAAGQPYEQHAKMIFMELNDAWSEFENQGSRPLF
G protein-coupled receptor kinase 4 (Homo sapiens), sequence (P32298 whole entry, looked up, the tested form may be a part): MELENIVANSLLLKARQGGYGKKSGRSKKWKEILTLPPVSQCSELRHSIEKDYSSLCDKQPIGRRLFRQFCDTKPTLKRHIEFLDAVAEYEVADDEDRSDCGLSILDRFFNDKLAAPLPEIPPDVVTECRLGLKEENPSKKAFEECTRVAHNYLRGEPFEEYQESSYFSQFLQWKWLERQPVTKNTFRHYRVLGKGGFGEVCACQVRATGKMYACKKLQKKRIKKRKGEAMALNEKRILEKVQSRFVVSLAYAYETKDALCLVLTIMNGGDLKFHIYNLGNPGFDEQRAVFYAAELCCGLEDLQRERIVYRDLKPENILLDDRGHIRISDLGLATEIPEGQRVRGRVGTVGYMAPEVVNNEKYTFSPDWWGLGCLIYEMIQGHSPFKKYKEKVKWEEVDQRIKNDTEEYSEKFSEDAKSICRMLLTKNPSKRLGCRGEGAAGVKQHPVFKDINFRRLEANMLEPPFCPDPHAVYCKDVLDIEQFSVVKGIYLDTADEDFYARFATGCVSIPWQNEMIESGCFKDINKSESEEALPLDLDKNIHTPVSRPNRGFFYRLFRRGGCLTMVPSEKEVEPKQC
Dual specificity mitogen-activated protein kinase kinase 4 (Homo sapiens), sequence (P45985 whole entry, the tested form may be a part): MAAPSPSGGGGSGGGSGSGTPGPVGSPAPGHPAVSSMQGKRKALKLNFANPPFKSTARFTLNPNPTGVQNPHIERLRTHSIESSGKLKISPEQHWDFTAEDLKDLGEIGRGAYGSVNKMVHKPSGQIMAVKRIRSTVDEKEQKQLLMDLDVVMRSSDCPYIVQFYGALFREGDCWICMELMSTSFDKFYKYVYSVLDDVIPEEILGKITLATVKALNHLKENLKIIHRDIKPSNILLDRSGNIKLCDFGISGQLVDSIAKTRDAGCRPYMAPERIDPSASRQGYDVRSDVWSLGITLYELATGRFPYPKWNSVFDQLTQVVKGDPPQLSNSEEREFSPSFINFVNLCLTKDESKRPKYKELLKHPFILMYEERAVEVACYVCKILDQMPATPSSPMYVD
Misshapen-like kinase 1 (Homo sapiens), sequence (Q8N4C8 whole entry, looked up, the tested form may be a part): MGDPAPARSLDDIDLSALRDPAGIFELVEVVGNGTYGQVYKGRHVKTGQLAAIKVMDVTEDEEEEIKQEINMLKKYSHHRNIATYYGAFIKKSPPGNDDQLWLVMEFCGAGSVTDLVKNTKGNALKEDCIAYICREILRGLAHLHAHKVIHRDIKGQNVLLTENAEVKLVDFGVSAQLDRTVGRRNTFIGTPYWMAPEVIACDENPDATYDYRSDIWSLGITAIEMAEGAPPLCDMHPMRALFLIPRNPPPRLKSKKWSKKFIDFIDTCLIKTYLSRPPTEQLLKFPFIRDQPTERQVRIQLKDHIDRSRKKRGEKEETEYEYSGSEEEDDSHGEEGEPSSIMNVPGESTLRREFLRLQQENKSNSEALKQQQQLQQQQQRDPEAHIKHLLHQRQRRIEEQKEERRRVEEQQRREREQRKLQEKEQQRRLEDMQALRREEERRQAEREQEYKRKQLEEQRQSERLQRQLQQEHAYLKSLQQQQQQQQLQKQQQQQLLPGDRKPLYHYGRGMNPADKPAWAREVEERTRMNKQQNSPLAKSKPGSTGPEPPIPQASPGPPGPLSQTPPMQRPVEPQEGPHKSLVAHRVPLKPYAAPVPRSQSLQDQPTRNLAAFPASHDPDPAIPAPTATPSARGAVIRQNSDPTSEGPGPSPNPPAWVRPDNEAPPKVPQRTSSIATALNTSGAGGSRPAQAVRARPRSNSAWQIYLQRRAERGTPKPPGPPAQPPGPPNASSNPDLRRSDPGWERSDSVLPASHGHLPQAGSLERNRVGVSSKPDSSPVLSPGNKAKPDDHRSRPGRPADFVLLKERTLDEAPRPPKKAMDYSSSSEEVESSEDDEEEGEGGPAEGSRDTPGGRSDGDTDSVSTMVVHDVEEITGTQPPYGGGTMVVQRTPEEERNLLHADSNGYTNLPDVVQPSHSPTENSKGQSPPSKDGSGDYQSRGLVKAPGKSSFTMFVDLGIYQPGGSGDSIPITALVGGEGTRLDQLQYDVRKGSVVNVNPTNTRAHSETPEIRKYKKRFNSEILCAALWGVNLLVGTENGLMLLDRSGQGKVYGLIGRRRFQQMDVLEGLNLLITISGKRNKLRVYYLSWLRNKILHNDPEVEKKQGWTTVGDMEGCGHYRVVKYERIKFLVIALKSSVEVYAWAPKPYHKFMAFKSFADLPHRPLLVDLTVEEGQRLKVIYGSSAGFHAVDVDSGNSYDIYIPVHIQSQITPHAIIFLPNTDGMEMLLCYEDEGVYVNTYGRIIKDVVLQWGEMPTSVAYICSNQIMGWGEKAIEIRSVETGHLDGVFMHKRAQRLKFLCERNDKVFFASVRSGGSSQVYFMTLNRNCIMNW
MAP kinase-activated protein kinase 2 (Homo sapiens), sequence (P49137 whole entry, looked up, the tested form may be a part): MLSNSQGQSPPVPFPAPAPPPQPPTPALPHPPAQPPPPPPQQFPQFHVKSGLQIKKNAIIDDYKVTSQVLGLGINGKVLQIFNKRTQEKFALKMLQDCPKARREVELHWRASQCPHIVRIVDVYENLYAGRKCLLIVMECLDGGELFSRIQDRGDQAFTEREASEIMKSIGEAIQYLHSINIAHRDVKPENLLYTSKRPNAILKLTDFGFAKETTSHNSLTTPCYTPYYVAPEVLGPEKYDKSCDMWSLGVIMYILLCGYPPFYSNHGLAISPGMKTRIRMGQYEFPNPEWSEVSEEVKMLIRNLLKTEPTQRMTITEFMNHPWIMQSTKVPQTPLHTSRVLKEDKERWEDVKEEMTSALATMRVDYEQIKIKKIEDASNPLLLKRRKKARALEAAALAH

**Q.** `C=CC(=O)Nc1cc(Nc2cc(-c3cccc(NC(=O)c4ccc(C(C)(C)C)cc4)c3C)cn(C)c2=O)ccc1C(=O)N1CCOCC1` was tested. Which GI50 (SKM-1) did it give?
**A.** 7.1 µM

**Q.** And the Activity [1]?
**A.** 100%

**Q.** And the Activity [2]?
**A.** 100%

**Q.** What about the Activity [3] of the same molecule?
**A.** 100%

**Q.** What about the Activity [4] of the same molecule?
**A.** 100%

**Q.** What about the Activity [5] of the same molecule?
**A.** 100%

**Q.** And the Activity [6]?
**A.** 97%

**Q.** And the Activity [7]?
**A.** 99%

**Q.** What about the Activity [8] of the same molecule?
**A.** 80%

**Q.** And the Activity [9]?
**A.** 100%

**Q.** And the Activity [10]?
**A.** 88%

**Q.** What about the Activity [11] of the same molecule?
**A.** 86%

**Q.** What about the Activity [12] of the same molecule?
**A.** 98%

**Q.** What about the Activity [13] of the same molecule?
**A.** 82%

**Q.** And the Activity [14]?
**A.** 83%

**Q.** And the Activity [15]?
**A.** 100%

**Q.** What about the Activity [16] of the same molecule?
**A.** 99%

**Q.** And the Activity [17]?
**A.** 91%

**Q.** What about the Activity [18] of the same molecule?
**A.** 78%

**Q.** And the Activity [19]?
**A.** 90%

**Q.** And the Activity [20]?
**A.** 92%

**Q.** What about the Activity [21] of the same molecule?
**A.** 90%

**Q.** And the Activity [22]?
**A.** 87%

**Q.** And the Activity [23]?
**A.** 95%

**Q.** What about the Activity [24] of the same molecule?
**A.** 76%

**Q.** And the Activity [25]?
**A.** 100%
